We go through one compound from US6291496A, “Treating cancers associated with overexpression of class I family of receptor tyrosine kinases” (priority 1999, dated 2001).

In this experiment the test system is HER-2/neu positive breast cancer metastasized to lung and liver. Kind of experiment: Example III: breast cancer metastasized to lung and liver. It counts as in vivo, human. The note with it: patient, oral 5 mg/kg twice daily. The method, then:
After three months, the PPARγ ligand administration is continued in combination regimen with Taxol® at a dose of 175 mg/m^2 administered intravenously every three weeks.

Consider `CC1(COc2ccc(CC3SC(=O)NC3=O)cc2)CCCCC1` (stereo not shown) [ciglitazone], for which the tumor burden result is listed as “reduced tumor burden”.
